Results taken from US20200055871A1, “ACTIVATORS OF THE RETINOIC ACID INDUCIBLE GENE "RIG-I" PATHWAY AND METHODS OF USE THEREOF” (Kineta Immuno-Oncology LLC, priority 2018, published 2020).

Assays:
[1] = test system: murine CT26 colon carcinoma cells; test: RIG-I dependent CXCL10 secretion by CT26 cells (ELISA); format: cell-based; settings: supernatant 24 h after stimulation
Experimental: (§1) The CT26 murine colon carcinoma cell line (ATCC) was used to evaluate the induction of CXCL10 secretion. CXCL10 is an important chemokine in tumor immune biology that recruits tumor-specific T cells to the tumor. To confirm that compound-mediated CXCL10 production was RIG-I specific, RIG-1 deficient CT2-RIG-I−/−cells were generated by Kineta Inc. using CRISPR technology.
(§2) CT26 cells were seeded at a density of 1×10^4 cells per well on a 96-well tissue culture plate in 100 μL of cell culture and cells were incubated at 37° C. and 5% CO2 for 24 hr. Next, CT26 cells were treated with compounds at the indicated concentrations. CXCL10 was quantified by ELISA from supernatants taken 24 h after compound stimulation by use of the CXCL10 Duo Set ELISA kit (Cat #DY466, R&D, Minneapolis, Minn., USA) according to the manufacturer's instructions.
(§3) CXCL10 secretion by CT26 cells in response to compounds (in an amount of 5 to 20 μM) of the present disclosure is shown in Table 8. The compound-induced CXCL10 production was RIG-I dependent, since none of the compounds mediated CXCL10 secretion in RIG-I deficient CT26 RIG-I−/−cells (about 0 pg/mL of CXCL10, or below the level of quantitation). The compounds (10 μM, *20 μM, **5 μM) are indicated in the table as follows: “≠” indicates less than 100 pg/mL; “+” indicates 100-199 pg/mL; “++” indicates 200-399 pg/mL; “+++” indicates 400-799 pg/mL; “++++” indicates 800 to 1599 pg/mL; “+++++” indicates greater than or equal to 1600 pg/ml.

[2] = test system: IRF3 signaling pathway in THP1-Lucia™ ISG cells; test: THP1-Lucia ISG reporter assay: induction of IRF3-dependent gene expression (secreted luciferase); format: cell-based, human; settings: PMA-differentiated cells, 18 h after stimulation; for fold induction at 10 µM: Homo sapiens, THP1-Lucia ISG, read-out: fold increase of IRF3-dependent luciferase activity over background, THP1 ISG
Experimental: The compounds were evaluated in the THP1-Lucia™ ISG (interferon stimulated genes) reporter assay to determine if the compounds activate the IRF3 signaling pathway. The THP1-Lucia™ cells (InvivoGen) express the secreted luciferase (Lucia) reporter gene under the control of an IRF-inducible promoter. The reporter cell line was developed from human monocytic leukemia THP-1 cells.
(§4) The promoter was comprised of five IFN-stimulated response elements (ISRE) fused to an ISG54 minimal promoter which is unresponsive to NF-kB or AP-1 pathways. […] The IRF3-deficient THP1-Lucia™ ISG IRF3−/−reporter cell line was generated by CRISPR technology from the parent THP1-Lucia™ ISG reporter cell line.
(§5) THP1-Lucia™ ISG cells and IRF3-deficient THP1-Lucia™ ISG IRF3−/−cells were differentiated with PMA (100 ng/ml) and stimulated with compounds at the indicated concentrations (5 to 20 μM), positive control, or not treated (background). Luciferase secretion was quantified using the QUANTI-Luc luciferase assay system (InvivoGen) 18 h after stimulation. Data are shown as fold increase luciferase activity over background in Table 7 and represent the IRF3-dependent ISG54 promoter activity by the THP1-Lucia™ ISG cells in response to compounds. […] The fold increase of compounds (10 μM, *20 μM, **5 μM) induced IRF3 dependent luciferase activity is indicated as follows: “≠” indicates less than 2.4 fold increase; “+” indicates a 2.4-4.9 fold increase; “++” indicates a 5-9.9 fold increase; “+++” indicates a 10-19 fold increase; “++++” indicates a 20-39 fold increase; “+++++” indicates greater than or equal to 40 fold increase.

[3] = test system: RIG-I deficient CT26 RIG-I−/− cells; test: CXCL10 secretion by RIG-I deficient CT26 RIG-I−/− cells (ELISA); format: cell-based, murine; settings: compound 5 to 20 μM, 24 h
Experimental: as §1, §2, §3

[4] = test system: IRF3-deficient THP1-Lucia™ ISG IRF3−/− cells; test: THP1-Lucia ISG IRF3−/− reporter assay (IRF3-deficient control cells); format: cell-based, human; settings: compound 5 to 20 μM, 18 h
Experimental: as §4, §5

Molecule | CXCL10 secretion, CT26 ([1]; 20 μM compound (*)) | fold increase of IRF3-dependent luciferase activity over background, THP1 ISG ([2]; 10 μM compound) | CXCL10 secretion, CT26 RIG-I−/− [3] | fold increase of luciferase activity, THP1 ISG IRF3−/− [4] | fold increase of IRF3-dependent luciferase activity over background, THP1 ISG ([2]; 20 μM compound (*)) | CXCL10 secretion, CT26 ([1]; 10 μM compound) | fold induction at 10 µM ([2]; 10 μM compound)
O=C(Nc1cc2ccc3scnc3c2o1)c1cc2ccccc2cc1OCCN1CCOCC1 [Example 57, 3-[2-(morpholin-4-yl)ethoxy]-N-{12-oxa-5-thia-3-azatricyclo [7.3.0.0^2,^6]dodeca-1,3,6,8,10-pentaen-11-yl}naphthalene-2-carboxamide] | ++* (200-399 pg/mL) | +++ (a 10-19 fold increase) | − | − (less than 0.5 fold above baseline was considered below the level of quantitation) |  |  | 
O=C(Nc1nc2c(ccc3scnc32)[nH]1)c1ccc2ccccc2c1 [Example 48, N-{5-thia-3,10,12-triazatricyclo[7.3.0.0^2,^6]dodeca-1,3,6,8,11-pentaen-11-yl}naphthalene-2-carboxamide] | ++++* (800 to 1599 pg/mL) |  | − | − (less than 0.5 fold above baseline was considered below the level of quantitation) | ++* (a 5-9.9 fold increase) |  | 
O=C(Nc1cc2ccc3scnc3c2s1)c1cc2c(cc1OCCN1CCOCC1)OCO2 [Example 63, N-{5,12-dithia-3-azatricyclo[7.3.0.0^2,^6]dodeca-1,3,6,8,10-pentaen-11-yl}-6-[2-(morpholin-4-yl)ethoxy]-2H-1,3-benzodioxole-5-carboxamide] |  | ≠ (less than 2.4 fold increase) | − | − (less than 0.5 fold above baseline was considered below the level of quantitation) |  | ≠ (less than 100 pg/mL) | 
O=C(Nc1cc2ccc3scnc3c2s1)c1cc2ccsc2cc1OCCN1CCOCC1 [Example 65, N-{5,12-dithia-3-azatricyclo[7.3.0.0^2,^6]dodeca-1,3,6,8,10-pentaen-11-yl}-6-[2-(morpholin-4-yl)ethoxy]-1-benzothiophene-5-carboxamide] |  | + (a 2.4-4.9 fold increase) |  | − (less than 0.5 fold above baseline was considered below the level of quantitation) |  | ≠ (less than 100 pg/mL) | 
6-[2-(morpholin-4-yl)ethoxy]-N-{4-oxo-5,12-dithia-3-azatricyclo[7.3.0.0^2,^6]dodeca-1,6,8,10-tetraen-11-yl}-1-benzothiophene-5-carboxamide [Example 70] |  |  | − | − (less than 0.5 fold above baseline was considered below the level of quantitation) |  |  | 
COc1nc2c(ccc3cc(NC(=O)c4cc5ccsc5cc4OCCCCN4CCOCC4)sc32)s1 [Example 68, N-{4-methoxy-5,12-dithia-3-azatricyclo[7.3.0.0^2,^6]dodeca-1,3,6,8,10-pentaen-11-yl}-6-[4-(morpholin-4-yl)butoxy]-1-benzothiophene-5-carboxamide] |  |  | − | − (less than 0.5 fold above baseline was considered below the level of quantitation) |  |  | 
N-{4-methoxy-5,12-dithia-3-azatricyclo[7.3.0.0^2,^6]dodeca-1,3,6,8,10-pentaen-11-yl}-6-[2-(morpholin-4-yl)ethoxy]-1-benzothiophene-5-carboxamide [Example 67] |  |  | − | − (less than 0.5 fold above baseline was considered below the level of quantitation) |  |  | 
Cn1ccc2cc(OCCN3CCOCC3)c(C(=O)Nc3nc4ccc5scnc5c4s3)cc21 [Example 69, N-{3,10-dithia-5,12-diazatricyclo[7.3.0.0^2,^6]dodeca-1,4,6,8,11-pentaen-4-yl}-1-methyl-5-[2-(morpholin-4-yl)ethoxy]-1H-indole-6-carboxamide] |  |  | − | − (less than 0.5 fold above baseline was considered below the level of quantitation) |  |  | 
O=C(Nc1nc2ccc3scnc3c2s1)c1cc2ccsc2cc1OCCCCN1CCOCC1 [Example 43, N-{3,10-dithia-5,12-diazatricyclo[7.3.0.0^2,^6]dodeca-1,4,6,8,11-pentaen-4-yl}-6-[4-(morpholin-4-yl)butoxy]-1-benzothiophene-5-carboxamide] |  |  | − |  |  | +++ (400-799 pg/mL) | 10 to 19
O=C(Nc1nc2ccc3scnc3c2s1)c1cc2ccccc2cc1OCCN1CCOCC1 [Example 24, N-{3,10-dithia-5,12-diazatricyclo[7.3.0.0^2,^6]dodeca-1,4,6,8,11-pentaen-4-yl}-3-[2-(morpholin-4-yl)ethoxy]naphthalene-2-carboxamide] |  |  | − |  |  | +++ (400-799 pg/mL) | 20 to 39
CSc1nc2c(ccc3nc(NC(=O)c4cc5ccccc5cc4OCCCN4CCOCC4)sc32)s1 [Example 36, N-[11-(methylsulfanyl)-3,10-dithia-5,12-diazatricyclo[7.3.0.0^2,^6]dodeca-1,4,6,8,11-pentaen-4-yl]-3-[3-(morpholin-4-yl)propoxy]naphthalene-2-carboxamide] |  |  | − |  |  | +++ (400-799 pg/mL) | 5 to 9.9
O=C(Nc1nc2ccc3scnc3c2s1)c1cc2ccccc2cc1OCCCN1CCOCC1 [Example 1, N-{3,10-dithia-5,12-diazatricyclo[7.3.0.0^2,6]dodeca-1,4,6,8,11-pentaen-4-yl}-3-[3-(morpholin-4-yl)propoxy]naphthalene-2-carboxamide] |  |  | − |  |  | ++++ (800 to 1599 pg/mL) | 2.4 to 4.9
O=C(Nc1nc2ccc3scnc3c2s1)c1cc2ccccc2cc1OCCN1CCNCC1 [Example 47, N-{3,10-Dithia-5,12-diazatricyclo[7.3.0.0^2,6]dodeca-1,4,6,8,11-pentaen-4-yl}-3-[2-(piperazin-1-yl)ethoxy]naphthalene-2-carboxamide] |  |  | − |  |  | + (100-199 pg/mL) | 2.4 to 4.9
O=C(Nc1nc2ccc3scnc3c2s1)c1cc2ccccc2cc1OCCCCN1CCOCC1 [Example 28, N-{3,10-dithia-5,12-diazatricyclo[7.3.0.0^2,^6]dodeca-1,4,6,8,11-pentaen-4-yl}-3-[4-(morpholin-4-yl)butoxy]naphthalene-2-carboxamide] |  |  | − |  |  | ++ (200-399 pg/mL) | 2.4 to 4.9
COc1cc(OC)cc(C(=O)Nc2nc3ccc4sc(C)nc4c3s2)c1 [Example 2, 3,5-dimethoxy-N-{11-methyl-3,10-dithia-5,12-diazatricyclo[7.3.0.0^2,^6]dodeca-1,4,6,8,11-pentaen-4-yl}benzamide] | ++++* (800 to 1599 pg/mL) |  | − |  |  |  | 5 to 9.9
O=C(Nc1nc2ccc3scnc3c2s1)c1cc2c(cc1OCCN1CCOCC1)OCO2 [Example 40, N-{3,10-dithia-5,12-diazatricyclo[7.3.0.0^2,^6]dodeca-1,4,6,8,11-pentaen-4-yl}-6-[2-(morpholin-4-yl)ethoxy]-2H-1,3-benzodioxole-5-carboxamide] |  |  | − |  |  | ≠ (less than 100 pg/mL) | 20 to 39
